Where “and” joins values, the source holds several entries; their conditions need not be identical. Equal entries are not always repeated. Entries after “also recorded” stand apart in the source; their conditions may differ.
What was measured:
HPIV-3 [1] = test: HPIV-3 syncytia formation in HEp-2 cells; type: cell-based; conditions: for rescue of lovastatin inhibition of HPIV-3 syncytia formation: added to lovastatin treated cells
HPIV-3 [2] = test: HPIV-3 replication in HEp-2 cells, plaque assay; type: cell-based; conditions: for reduction of HPIV-3 replication: 5 μM, 24 hrs treatment, MOI 0.1, titer 2 days after infection; for rescue of lovastatin inhibition of HPIV-3 replication: added to 10 μM lovastatin treated cells, 50 μM GGP, mevalonolactone or FP, cholesterol concentration not given
vaccinia virus = type: in vivo, mice; conditions: 1 mg/day lovastatin or 50 mg/day gemfibrozil oral gavage beginning three days prior to infection, vs PBS
RSV [3] = test: RSV replication in mice, lung plaque assay; type: in vivo; conditions: for peak RSV titer in the lung: mice, oral gavage beginning three days prior to infection, 1 mg/day lovastatin or 50 mg/day gemfibrozil, lungs day 4
RSV [4] = test: RSV-induced weight loss and illness in mice; type: in vivo; conditions: for peak percent weight loss on day 8 post infection: comparison PBS, gemfibrozil, lovastatin treated RSV-infected mice
[5] = Weight loss in uninfected treated mice; type: in vivo; conditions: 1 mg/day lovastatin or 50 mg/day gemfibrozil for 11 days
HIV-1 = conditions: human H9 lymphocytic cell line, early stages of infection; cited from earlier work
RSV [6] = test: RSV replication in HEp-2 cell culture, plaque assay; type: cell-based
Experimental: FIG. 5—Lovastatin eliminates RSV replication in cell culture. HEp-2 cell monolayers grown in 96 well plates were treated with either 10 μM lovastatin or left untreated beginning 24 hr prior to RSV infection (moi 0.1). Virus titer was measured for 8 consecutive days after RSV infection daily by plaque assay for eight days post RSV infection by harvesting the entire contents of a well and performing plaque assays in triplicate. RSV growth curve in untreated cells (□) and in cells treated with 10 μM lovastatin ( ? ). Error bars represent standard deviation.
Virus and Cells. The A2 strain of RSV was provided by Dr. R. Chanock, NIH, Bethesda, Md. RSV stocks were prepared as previously described (Graham et al., 1988). HEp-2 cells were maintained in Eagle's minimal essential media supplemented with glutamine, gentamicin, penicillin G, and 10% fetal bovine serum (FBS).
Plaque assay. Two-day-old HEp-2 monolayers, 80% confluent in 12-well plates (Costar, Cambridge, Mass.) were used for plaque assay. The assay was done as previously described (Graham et al., 1988).
Lovastatin eliminates RSV replication in HEp-2 cells. Next, the inventors asked whether lovastatin could alter RSV replication in cell culture. HEp-2 cells in a 96-well plate were treated with either 10 μM lovastatin or left untreated beginning 24 hr prior to RSV infection. […]

[7] = test system: RSV glycoproteins F, G and SH; type: cell-based
HIV = conditions: cultured MT-2 cells; reported in U.S. Ser. No. 09/129,565; cited from earlier work
[8] = 5 μM, beginning 24 hr prior to infection, MOI 0.1, two days post infection
[9] = 10 μM lovastatin beginning 24 hr prior to infection, MOI 0.1

Question: Which HPIV-3-induced syncytia formation (HPIV-3 [1]; [8]) does the source give for `COC(=O)[C@H](CCSC)NC(=O)c1ccc(NC[C@@H](N)CS)cc1-c1ccccc1` [FTI-277] here?
Answer: The HPIV-3-induced syncytia formation was “does not inhibit”.

Question: What about the “reduction of HPIV-3 replication” value (HPIV-3 [2]) of the same compound?
Answer: Its value is 10 fold.

Question: With `COC(=O)[C@H](CC(C)C)NC(=O)c1ccc(NC[C@@H](N)CS)cc1-c1cccc2ccccc12` [GGTI-298] as the compound, how does the HPIV-3-induced syncytia formation (HPIV-3 [1]; [8]) read?
Answer: The HPIV-3-induced syncytia formation was “blocked”.

Question: What about the “reduction of HPIV-3 replication” value (HPIV-3 [2]) of the same compound?
Answer: Its value is 100 fold.

Question: With `CC(C)CCC[C@@H](C)[C@H]1CC[C@H]2[C@@H]3CC=C4C[C@@H](O)CC[C@]4(C)[C@H]3CC[C@]12C` [cholesterol] as the compound, how does the “rescue of lovastatin inhibition of HPIV-3 replication” value (HPIV-3 [2]) read?
Answer: Its value is “cannot rescue the inhibition”.

Question: For `CC(C)=CCC/C(C)=C/CC/C(C)=C/COP(=O)(O)OP(=O)(O)O` [farnesylpyrophosphate], which “rescue of lovastatin inhibition of HPIV-3 syncytia formation” value (HPIV-3 [1]) is on record?
Answer: Its value is “does not rescue the inhibition”.

Question: And the “rescue of lovastatin inhibition of HPIV-3 replication” value (HPIV-3 [2])?
Answer: The value was “partially restores”.

Question: Which results are given for `Cc1ccc(C)c(OCCCC(C)(C)C(=O)O)c1` [gemfibrozil]?
Answer: effect on vaccinia replication (vaccinia virus): not effected; inhibition of RSV replication in mice (RSV [3]; 50 mg/day gemfibrozil oral gavage (FIG. 1)): does not inhibit RSV replication; peak RSV titer in the lung (RSV [3]): 6.5+/−0.43 log10 pfu/gm; peak percent weight loss on day 8 post infection (RSV [4]): 40%; weight loss in uninfected mice [5]: no significant weight loss

Question: With `CC(C)=CCC/C(C)=C/CC/C(C)=C/CC/C(C)=C/COP(=O)(O)OP(=O)(O)O` [geranylgeranylpyrophosphate] as the compound, how does the “rescue of lovastatin inhibition of HPIV-3 syncytia formation” value (HPIV-3 [1]) read?
Answer: The value was “rescues the inhibition”.

Question: And the “rescue of lovastatin inhibition of HPIV-3 replication” value (HPIV-3 [2])?
Answer: The value was “rescues the inhibition”.

Question: Which results are given for `CC[C@H](C)C(=O)O[C@H]1C[C@@H](C)C=C2C=C[C@H](C)[C@H](CC[C@@H]3C[C@@H](O)CC(=O)O3)[C@H]21` [lovastatin]?
Answer: HPIV-3-induced syncytia formation (HPIV-3 [1]; [9]): blocked; reverse transcriptase activity in H9 cells infected with HIV-1 (HIV-1): decrease in reverse transcriptase activity; RSV replication in HEp-2 cells (RSV [6]; 10 μM lovastatin beginning 24 hr prior to RSV infection (moi 0.1), titer for 8 days): completely inhibited; effect on vaccinia replication (vaccinia virus): not effected; also recorded: does not inhibit vaccinia virus replication; diminution of virus-induced cell-to-cell fusion [7]: greater than 50%; fusion events per well [7]: 75+/−11 fusion events per well; reduction in RSV viral titer (RSV [3]; 1 mg/day lovastatin beginning 1 day after RSV infection): 10 fold; reduction in RSV viral titer compared to untreated mice (RSV [3]; 1 mg/day lovastatin beginning 3 days after infection): no reduction; RSV viral titer in the lung on day 4 (RSV [3]; 1 mg/day lovastatin beginning 3 days prior to infection): 3.8+/−0.48 log10 pfu/gm; reduction in RSV viral titer in lung compared to untreated mice (RSV [3]; 1 mg/day lovastatin beginning 3 days prior to infection, day 4): > 100 fold and 100- to 1000 fold; reduction of RSV replication (RSV [3]; 1 mg/day lovastatin oral gavage beginning three days prior to infection, vs PBS/gemfibrozil (FIG. 1)): ~100 fold; RSV viral titer in the lung on day 4 (RSV [3]; 1 mg/day lovastatin starting 3 days after RSV infection): 6.3+/−1.1 log10 pfu/gm; inhibition of RSV replication, dose response (RSV [3]; C57BL6 mice, 1 mg/day and 5 mg/day within 0.5 to 20 mg/day dose response): inhibited RSV replication equivalently; peak RSV titer in the lung (RSV [3]): 4.7+/−0.4 log10 pfu/gm; peak weight loss 8 days post infection (RSV [4]; 1 mg/day lovastatin 1 day post infection): 22%; peak weight loss 8 days post infection (RSV [4]; 1 mg/day lovastatin 1 day prior to infection): 19%; peak percent weight loss at 8 days post infection (RSV [4]; 1 mg/day lovastatin 3 days after RSV infection): about 30%; peak weight loss 8 days post infection (RSV [4]; 1 mg/day lovastatin 3 days prior to infection): 17%; peak percent weight loss on day 8 post infection (RSV [4]): 19%; RSV-induced illness (RSV [4]; lovastatin treatment, data not shown): reduces RSV-induced illness; weight loss in uninfected mice [5]: no significant weight loss; HPIV-3 replication (HPIV-3 [2]; [9]): completely blocks

Question: With `C[C@@]1(O)CCOC(=O)C1` [mevalonolactone] as the compound, how does the “rescue of lovastatin inhibition of HPIV-3 syncytia formation” value (HPIV-3 [1]) read?
Answer: Its value is “rescues the inhibition”.

Question: And the “rescue of lovastatin inhibition of RSV replication” value (RSV [6]; 10 μM lovastatin for 24 hr followed by 20 μM mevalonolactone)?
Answer: Its value is “can be rescued”.

Question: And the “rescue of lovastatin inhibition of HPIV-3 replication” value (HPIV-3 [2])?
Answer: The value was “rescues the inhibition”.

Question: For “RhoA77-95: peptide comprising the sequence of amino acids 77-95 of RhoA (TDVILMCFSIDSPDSLENI; UniProt P61586 77-95, looked up, fragment)”, which “HIV infection and syncytia formation” value (HIV) is on record?
Answer: Its value is “inhibit both infection and syncytia formation”.
